Experimental findings from US5955440A, “Macrolide LHRH antagonists” (Abbott Laboratories, priority 1998, dated 1999) are described below.

In the first experiment the target is T1, LHRH rat pituitary receptor (Rattus norvegicus, UniProt P30969).
T1 construct: from tissue; host or cells: rat pituitary
T1 sequence (P30969 1-327): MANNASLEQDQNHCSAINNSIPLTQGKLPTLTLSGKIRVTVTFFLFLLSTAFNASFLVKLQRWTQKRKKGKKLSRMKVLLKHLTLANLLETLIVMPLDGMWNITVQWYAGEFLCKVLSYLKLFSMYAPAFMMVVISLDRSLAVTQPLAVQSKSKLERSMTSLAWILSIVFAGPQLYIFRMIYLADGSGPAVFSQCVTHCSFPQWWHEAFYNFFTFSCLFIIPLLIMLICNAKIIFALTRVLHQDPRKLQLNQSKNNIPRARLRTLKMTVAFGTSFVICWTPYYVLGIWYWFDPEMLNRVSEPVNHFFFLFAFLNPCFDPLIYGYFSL
Briefly: LHRH rat pituitary receptor binding (pKI). To be noted: negative logarithm of the equilibrium dissociation constants, Table 1. How it is done:
Representative compounds of the present invention were evaluated in in vitro tests for LHRH rat pituitary receptor binding (pKI) and for LH inhibition from rat pituitary cells for antagonist potency (pA2). The tests employed the methods detailed in F. Haviv, et al. J. Med. Chem., 32: 2340-2344 (1989). The receptor binding affinity (pKI) is the negative logarithm of the equilibrium dissociation constants.
For `CC[C@H]1OC(=O)[C@H](C)[C@@H](O[C@H]2C[C@@](C)(OC)[C@@H](O)[C@H](C)O2)[C@H](C)[C@@H](O[C@@H]2O[C@H](C)C[C@H](N(C)CCCCc3ccncc3)[C@H]2O)[C@](C)(OC)C[C@@H](C)C(=O)[C@H](C)[C@H]2N(CCc3ccc(F)c(Cl)c3)C(=O)O[C@]12C` [Example 83, 3'-N-Desmethyl-3'-N-[4-(4-pyridyl)butyl]-11-deoxy-11-[carboxy-(3-chloro-4-fluorophenethylamino)]-6-O-methyl-erythromycin A 11,12-(cyclic carbamate)], the “receptor binding affinity (pKI)” value is 8.46.

Staying with this experiment, now noted: negative logarithm of the equilibrium dissociation constants, Table 1, read-out: receptor binding affinity (pKI) (converted).
`CC[C@H]1OC(=O)[C@H](C)[C@@H](O[C@H]2C[C@@](C)(OC)[C@@H](O)[C@H](C)O2)[C@H](C)[C@@H](O[C@@H]2O[C@H](C)C[C@H](N(C)Cc3ccc4ccccc4c3Br)[C@H]2O)[C@](C)(OC)C[C@@H](C)C(=O)[C@H](C)[C@H]2N(CCc3ccc(Cl)c(Cl)c3)C(=O)O[C@]12C` [Example 72, 3'-N-Desmethyl-3'-N-(1-bromo-2-napthylmethyl)-11-deoxy-11-[carboxy-(3,4-dichlorophenethylamino)]-6-O-methyl-erythromycin A 11,12-(cyclic carbamate)]: the Ki was 0.676 nM.

For `CC[C@H]1OC(=O)[C@H](C)[C@@H](O[C@H]2C[C@@](C)(OC)[C@@H](O)[C@H](C)O2)[C@H](C)[C@@H](O[C@@H]2O[C@H](C)C[C@H](N(C)Cc3ccc(C)c4ccccc34)[C@H]2O)[C@](C)(OC)C[C@@H](C)C(=O)[C@H](C)[C@H]2N(CCc3ccc(Cl)c(Cl)c3)C(=O)O[C@]12C` [Example 73, 3'-N-Desmethyl-3'-N-(4-methyl-1-napthylmethyl)-11-deoxy-11-[carboxy-(3,4-dichlorophenethylamino)]-6-O-methyl-erythromycin A 11,12-(cyclic carbamate)], the Ki is 0.214 nM.

Consider `CC[C@H]1OC(=O)[C@H](C)[C@@H](O[C@H]2C[C@@](C)(OC)[C@@H](O)[C@H](C)O2)[C@H](C)[C@@H](O[C@@H]2O[C@H](C)C[C@H](N(C)Cc3ccc(N(C)C)c4ccccc34)[C@H]2O)[C@](C)(OC)C[C@@H](C)C(=O)[C@H](C)[C@H]2N(CCc3ccc(Cl)c(Cl)c3)C(=O)O[C@]12C` [Example 74, 3'-N-Desmethyl-3'-N-(4-dimethylamino-1-napthylmethyl)-11-deoxy-11-[carboxy-(3,4-dichlorophenethylamino)]-6-O-methyl-erythromycin A 11,12-(cyclic carbamate)], for which the Ki is 3.16 nM.

With `CC[C@H]1OC(=O)[C@H](C)[C@@H](O[C@H]2C[C@@](C)(OC)[C@@H](O)[C@H](C)O2)[C@H](C)[C@@H](O[C@@H]2O[C@H](C)C[C@H](N(C)Cc3ccco3)[C@H]2O)[C@](C)(OC)C[C@@H](C)C(=O)[C@H](C)[C@H]2N(CCc3ccc(Cl)c(Cl)c3)C(=O)O[C@]12C` [Example 75, 3'-N-Desmethyl-3'-N-(2-furylmethyl)-11-deoxy-11-[carboxy-(3,4-dichlorophenethylamino)]-6-O-methyl-erythromycin A 11,12-(cyclic carbamate)], the Ki is 1.26 nM.

Take `CC[C@H]1OC(=O)[C@H](C)[C@@H](O[C@H]2C[C@@](C)(OC)[C@@H](O)[C@H](C)O2)[C@H](C)[C@@H](O[C@@H]2O[C@H](C)C[C@H](N(C)CCCc3ccncc3)[C@H]2O)[C@](C)(OC)C[C@@H](C)C(=O)[C@H](C)[C@H]2N(CCc3ccc(Cl)c(Cl)c3)C(=O)O[C@]12C` [Example 76, 3'-N-Desmethyl-3'-N-[3-(4-pyridyl)propyl]-11-deoxy-11-[carboxy-(3,4-dichlorophenethylamino)]-6-O-methyl-erythromycin A 11,12-(cyclic carbamate)]: the Ki was 9.12 nM.

With `CC[C@H]1OC(=O)[C@H](C)[C@@H](O[C@H]2C[C@@](C)(OC)[C@@H](O)[C@H](C)O2)[C@H](C)[C@@H](O[C@@H]2O[C@H](C)C[C@H](N(C)CCCc3ccccn3)[C@H]2O)[C@](C)(OC)C[C@@H](C)C(=O)[C@H](C)[C@H]2N(CCc3ccc(Cl)c(Cl)c3)C(=O)O[C@]12C` [Example 77, 3'-N-Desmethyl-3'-N-[3-(2-pyridyl)propyl]-11-deoxy-11-[carboxy-(3,4-dichlorophenethylamino)]-6-O-methyl-erythromycin A 11,12-(cyclic carbamate)], the Ki was 6.17 nM.

As to `CC[C@H]1OC(=O)[C@H](C)[C@@H](O[C@H]2C[C@@](C)(OC)[C@@H](O)[C@H](C)O2)[C@H](C)[C@@H](O[C@@H]2O[C@H](C)C[C@H](N(C)CCCCc3ccncc3)[C@H]2O)[C@](C)(OC)C[C@@H](C)C(=O)[C@H](C)[C@H]2N(CCc3ccc(Cl)c(Cl)c3)C(=O)O[C@]12C` [Example 78, 3'-N-Desmethyl-3'-N-[4-(4-pyridyl)butyl]-11-deoxy-11-[carboxy-(3,4-dichlorophenethylamino)]-6-O-methyl-erythromycin A 11,12-(cyclic carbamate)], the Ki was 7.94 nM.

For `CC[C@H]1OC(=O)[C@H](C)[C@@H](O[C@H]2C[C@@](C)(OC)[C@@H](O)[C@H](C)O2)[C@H](C)[C@@H](O[C@@H]2O[C@H](C)C[C@H](N(C)CCCc3cccnc3)[C@H]2O)[C@](C)(OC)C[C@@H](C)C(=O)[C@H](C)[C@H]2N(CCc3ccc(F)c(Cl)c3)C(=O)O[C@]12C` [Example 80, 3'-N-Desmethyl-3'-N-[3-(3-pyridyl)propyl]-11-deoxy-11-[carboxy-(3-chloro-4-fluorophenethylamino)]-6-O-methyl-erythromycin A 11,12-(cyclic carbamate)], the Ki is 3.98 nM.

As for `CC[C@H]1OC(=O)[C@H](C)[C@@H](O[C@H]2C[C@@](C)(OC)[C@@H](O)[C@H](C)O2)[C@H](C)[C@@H](O[C@@H]2O[C@H](C)C[C@H](N(C)CCCc3ccncc3)[C@H]2O)[C@](C)(OC)C[C@@H](C)C(=O)[C@H](C)[C@H]2N(CCc3ccc(F)c(Cl)c3)C(=O)O[C@]12C` [Example 81, 3'-N-Desmethyl-3'-N-[3-(4-pyridyl)propyl]-11-deoxy-11-[carboxy-(3-chloro-4-fluorophenethylamino)]-6-O-methyl-erythromycin A 11,12-(cyclic carbamate)], the Ki was 4.37 nM.

Turning to `CC[C@H]1OC(=O)[C@H](C)[C@@H](O[C@H]2C[C@@](C)(OC)[C@@H](O)[C@H](C)O2)[C@H](C)[C@@H](O[C@@H]2O[C@H](C)C[C@H](N(C)CCCc3ccccn3)[C@H]2O)[C@](C)(OC)C[C@@H](C)C(=O)[C@H](C)[C@H]2N(CCc3ccc(F)c(Cl)c3)C(=O)O[C@]12C` [Example 82, 3'-N-Desmethyl-3'-N-[3-(2-pyridyl)propyl]-11-deoxy-11-[carboxy-(3-chloro-4-fluorophenethylamino)]-6-O-methyl-erythromycin A 11,12-(cyclic carbamate)], the Ki was 2.29 nM.

As to `CC[C@H]1OC(=O)[C@H](C)[C@@H](O[C@H]2C[C@@](C)(OC)[C@@H](O)[C@H](C)O2)[C@H](C)[C@@H](O[C@@H]2O[C@H](C)C[C@H](N(C)CCCCc3cccc(C)n3)[C@H]2O)[C@](C)(OC)C[C@@H](C)C(=O)[C@H](C)[C@H]2N(CCc3ccc(F)c(Cl)c3)C(=O)O[C@]12C` [Example 84, 3'-N-Desmethyl-3'-N-[4-(6-methyl)-2-pyridyl]butyl-11-deoxy-11-[carboxy-(3-chloro-4-fluorophenethylamino)]-6-O-methyl-erythromycin A 11,12-(cyclic carbamate)], the Ki was 7.08 nM.

For the compound `CC[C@H]1OC(=O)[C@H](C)[C@@H](O[C@H]2C[C@@](C)(OC)[C@@H](O)[C@H](C)O2)[C@H](C)[C@@H](O[C@@H]2O[C@H](C)C[C@H](N(C)C(C)CCc3ccc(O)cc3)[C@H]2O)[C@](C)(OC)C[C@@H](C)C(=O)[C@H](C)[C@H]2N(CCc3ccc(Cl)c(Cl)c3)C(=O)O[C@]12C` (stereo partly drawn) [Example 85, 3'-N-Desmethyl-3'-N-(1-methyl)[3-(4-hydroxy)phenyl]propyl-11-deoxy-11-[carboxy-(3,4-dichlorophenethylamino)]-6-O-methyl-erythromycin A 11,12-(cyclic carbamate)], the Ki is 5.89 nM.

With `CC[C@H]1OC(=O)[C@H](C)[C@@H](O[C@H]2C[C@@](C)(OC)[C@@H](O)[C@H](C)O2)[C@H](C)[C@@H](O[C@@H]2O[C@H](C)C[C@H](N(C)C(C)CCc3ccc(O)cc3)[C@H]2O)[C@](C)(OC)C[C@@H](C)C(=O)[C@H](C)[C@H]2N(CCc3ccc(F)c(Cl)c3)C(=O)O[C@]12C` (stereo partly drawn) [Example 86, 3'-N-Desmethyl-3'-N-(1-methyl)[3-(4-hydroxy)phenyl]propyl-11-deoxy-11-[carboxy-(3-chloro-4fluorophenethylamino)]-6-O-methyl-erythromycin A 11,12-(cyclic carbamate)], the Ki is 1.78 nM.

With `CC[C@H]1OC(=O)[C@H](C)[C@@H](O[C@H]2C[C@@](C)(OC)[C@@H](O)[C@H](C)O2)[C@H](C)[C@@H](O[C@@H]2O[C@H](C)C[C@H](N(C)CCCc3cccc(C)n3)[C@H]2O)[C@](C)(OC)C[C@@H](C)C(=O)[C@H](C)[C@H]2N(CCc3ccc(F)c(Cl)c3)C(=O)O[C@]12C` [Example 87, 3'-N-Desmethyl-3'-N-[3-(6-methyl-2-pyridyl)propyl]-11-deoxy-11-[carboxy-(3-chloro-4-fluorophenethylamino)]-6-O-methyl-erythromycin A 11,12-(cyclic carbamate)], the Ki was 2.24 nM.
